Measurements taken from US20230364277A1, “E-SELECTIN TARGETING AGENTS” (GLYCOMIMETICS, INC., priority 2020, published 2023).

Test system: E-selectin expression on HUVEC
Assay: Induction of E-selectin expression on HUVEC by TNFα (flow cytometry, anti-E-selectin antibody)
Type: cell-based, human
Conditions: with TNFα stimulation
Method: Subsequent studies were performed to investigate the ability of liposomes containing Compound 3 to recognize and bind to cells under conditions where E-selectin is expressed. For these liposomes with and without Compound 3 were prepared with a fluorescent phospholipid membrane marker (Composition 4 and Composition 3, respectively) allowing for detection by flow cytometry. Liposomes were incubated for 60 min at 37° C. with cultures of human umbilical vein endothelial cells (HUVEC) pretreated in media deficient in TNFα or supplemented with TNFα to induce E-selectin expression. Association of fluorescein labeled liposomes with cell preparations by flow cytometry was then determined.
The flow cytometry-based assay used liposomes containing 0% or 5% Compound 3 (L4 and L5, respectively). Initial studies defined that only TNFα-stimulated HUVEC but not unstimulated HUVEC express E-selectin.

## TNFα
  HUVEC express E-selectin: 88.696%
